# Measured values published in patent US12064509B2, “Enema for rectal application” (Dr. Falk Pharma GmbH, priority 2015, dated 2024).
# Tests used:
# [1] = tested on: patients with active ulcerative colitis; experiment: Placebo-controlled randomized double-blind multicenter parallel group comparative study (Japic CTI-132294), rectal budesonide foam; assay type: in vivo, human
# [2] = tested on: patients with active ulcerative colitis; experiment: as above; assay type: in vivo, human; remark: listed apart in the source
# Description: Dose responsiveness, efficacy and safety are investigated for patients with active ulcerative colitis when budesonide 2 mg is rectally administered once a day or twice a day for 6 weeks by a double-blind comparative study with placebo as a control (clinical trial number: Japic CTI-132294). For the trial, an aerosol with fixed dose injection type for rectal injection (rectal foaming agent) is used as a test drug, in which 25 mL (1.35 g) of white creamy foam containing 2 mg of budesonide is released by one injection. As a remission induction therapeutic agent of ulcerative colitis in active phase where the lesion is confined to the rectum and sigmoid colon, the aerosol for rectal injection is approved in Europe at a dosage and dose of budesonide 2 mg once a day (trade name: Budenofalk 2 mg/dose rectal foam, manufactured by Dr. Falk Pharma GmbH). […] The subjects are ulcerative colitis patients in active phase, and are divided into a group administered the test drug once a day (hereinafter, once a day group, 54 cases), a group administered the test drug twice a day (hereafter, twice a day group, 55 cases), and a group administered the control drug (hereinafter, placebo group, 56 cases). The test drug or control drug is rectally administered twice a day (once in the morning and once in the evening), after defecation, if possible. However, for the once a day group of test drug, a control drug is administered in the morning and a test drug is administered in the evening. The number of injections per dose is one, the administration period is 6 weeks, and the drug is administered until the evening before the evaluation. The dose of budesonide in each group is 2 mg/day for the once a day group, 4 mg/day for the twice a day group, and 0 mg/day for the placebo group. Furthermore, in order to exclude patients whose symptoms improve due to the action of rectal administration (improvement example due to placebo effect) or patients who develop complaints resulting from rectal administration, a pre-observation period in which the control drug is administered twice a day (once in the morning and once in the evening) for one week under a single-blind test is set prior to this administration. […] The point estimate of the odds ratio for the placebo group (95% confidence interval on both sides) in the logistic regression model with model as main effect model, remission rate as objective variable, and administration group and assignment factor as explanatory variables is 3.994 (1.734 to 9.711) in the once a day group, and 3.674 (1.594 to 8.930) in the twice a day group. The lower limit value of 95% confidence interval on both sides exceeds 1 in both groups. […] In addition, the difference point estimate (95% confidence interval on both sides) from the placebo group is 22.8% (4.3% to 39.3%) in the once a day group, 30.5% (12.3% 46.0%) in the twice a day group. Significant differences are observed in the once a day group and twice a day group as compared with the placebo group. The results are illustrated in Table 1 and FIG. 1. In the table and figure, “budesonide once a day administration group” illustrates the result of once a day group, and “budesonide twice a day administration group” illustrates the result of twice a day group, respectively. Patients with MMDAI endoscopic score of 0 are evaluated as mucosal healing. […] In addition, the difference point estimate (95% confidence interval on both sides) from the placebo group is 18.1% (4.8% to 31.3%) in the once a day group, 40.9% (25.2% to 54.2%) in the twice a day group. Significant differences are observed in the once a day group and twice a day group as compared with the placebo group. […]
# [3] = once a day group, 55 analysis target cases
# [4] = twice a day group, 56 analysis target cases
# [5] = 2 mg once or twice a day, 6 weeks
# [6] = budesonide 2 mg once a day, 6 weeks
# [7] = budesonide 2 mg twice a day, 6 weeks
smiles,measurement,setting,value
"CCCC1O[C@@H]2C[C@H]3[C@@H]4CCC5=CC(=O)C=C[C@]5(C)[C@H]4[C@@H](O)C[C@]3(C)[C@]2(C(=O)CO)O1 (mixture of isomers) [Budesonide, (+)-[(RS)-16α,17α-Butylidenedioxy-11β,21-dihydroxy-1,4-pregnadiene-3,20-dione]]","Case (subjects in mucosal remission, endoscopic score 1 or less)",[1]; [3],38
same,"Case (subjects with mucosal healing, endoscopic score 0)",[1]; [3],13
same,"Case (subjects in mucosal remission, endoscopic score 1 or less)",[1]; [4],43
same,"Case (subjects with mucosal healing, endoscopic score 0)",[1]; [4],26
same,adverse events due to administration of the test drug,[2]; [5],serum cortisol decrease and serum corticotropin decrease occurs
same,serious adverse events or severe adverse events,[2]; [5],are not occurred
same,"incidence of adverse events, twice a day group compared with once a day group","[2]; 2 mg per dose, 6 weeks",increased
same,tolerability to patients of ulcerative colitis,[2]; 2 mg rectal administration once a day or twice a day for 6 weeks,acceptable
same,mucosal healing rate (proportion of subjects with MMDAI endoscopic score of 0),[2]; [6],23.6%
same,mucosal remission rate (proportion of subjects with MMDAI endoscopic score of 1 or less),[2]; [6],69.1%
same,"remission rate (MMDAI: bloody stool score 0, endoscopic score 1 or less, stool frequency score 0 or decrease of 1 point or more from week 0)","[2]; budesonide 2 mg rectal foam once a day, 6 weeks",50.9%
same,"remission rate (MMDAI: bloody stool score 0, endoscopic score 1 or less, stool frequency score 0 or decrease of 1 point or more from week 0)","[2]; budesonide 2 mg rectal foam twice a day, 6 weeks",48.2%
same,mucosal healing rate (proportion of subjects with MMDAI endoscopic score of 0),[2]; [7],46.4%
same,mucosal remission rate (proportion of subjects with MMDAI endoscopic score of 1 or less),[2]; [7],76.8%
same,"mucosal healing rate, point estimate of proportion difference from placebo group","[2]; once a day group, 6 weeks",18.1%
same,"mucosal remission rate, point estimate of proportion difference from placebo group","[2]; once a day group, 6 weeks",22.8%
same,"point estimate of the odds ratio versus the placebo group, mucosal healing rate (logistic regression)","[2]; once a day group, 6 weeks",5.143
same,"point estimate of the odds ratio versus the placebo group, remission rate (logistic regression)","[2]; once a day group, 6 weeks",3.994
same,incidence of adverse events related to glucocorticoids,[2]; twice a day group compared with once a day group,increase in the incidence of adverse events related to glucocorticoids is not observed
same,"mucosal healing rate, point estimate of proportion difference from placebo group","[2]; twice a day group, 6 weeks",40.9%
same,"mucosal remission rate, point estimate of proportion difference from placebo group","[2]; twice a day group, 6 weeks",30.5%
same,"point estimate of the odds ratio versus the placebo group, mucosal healing rate (logistic regression)","[2]; twice a day group, 6 weeks",15.553
same,"point estimate of the odds ratio versus the placebo group, remission rate (logistic regression)","[2]; twice a day group, 6 weeks",3.674
